Data set [1] deals with Plasmodium falciparum. Put plainly: Antimalarial activity against chloroquine-sensitive Plasmodium falciparum 3D7 infected in human erythrocytes assessed as parasite growth inhibition after 50 hrs by SYBR Green1 dye-based fluorescence assay. The format is functional, organism-based.
The subject of data set [2] is THP-1. Put plainly: Cytotoxicity against human THP1 cells assessed as cell viability after 72 hrs by MTT assay. The format is cell-based. To be noted: THP-1, 72 h. For orientation: Formazan colour is commonly taken as a measure of viable cells.
The subject of data set [3] is Plasmodium falciparum. Put plainly: Antimalarial activity against chloroquine-resistant Plasmodium falciparum Dd2 infected in human erythrocytes assessed as parasite growth inhibition after 50 hrs by SYBR Green1 dye-based fluorescence assay. The class given is functional, cell-based. The conditions noted are these: Dd2, 50 h.
Data set [4] relates to Plasmodium falciparum. The data set is described as follows: Potency index, ratio of ciprofloxacin IC50 to compound IC50 for chloroquine-sensitive Plasmodium falciparum 3D7 infected in human erythrocytes. The class given is functional.
Data set [5] in a line: Selectivity index, ratio of IC50 for human THP1 cells to IC50 for chloroquine-sensitive Plasmodium falciparum 3D7. The class given is toxicity, cell-based, THP-1. To be noted: read-out: Ratio IC50.
Data set [6] relates to HepG2. The data set is described as follows: Cytotoxicity against human HepG2 cells assessed as cell viability after 72 hrs by MTT assay. The format is cell-based. To be noted: HepG2, 72 h.
A short description of data set [7]: Selectivity index, ratio of IC50 for human HepG2 cells to IC50 for chloroquine-sensitive Plasmodium falciparum 3D7. The format is toxicity, cell-based. The conditions noted are these: read-out: Ratio IC50.
For data set [8], the system named is Plasmodium falciparum. The data set is described as follows: Potency index, ratio of ciprofloxacin IC50 to compound IC50 for chloroquine-resistant Plasmodium falciparum Dd2 infected in human erythrocytes. The format is functional.
The nature of data set [9]: Solubility of the compound at 93 uM. The class given is physicochemical.
The subject of data set [10] is Plasmodium falciparum. Put plainly: Antimalarial activity against blood stage form of Plasmodium falciparum assessed as incorporation of [3H]hypoxanthine after 72 hrs by liquid scintillation counting. The class given is functional, organism-based.
Setting [11] is: Plasmodium falciparum, 3D7, 50 h, read-out: IC50.

The source made the active and inactive calls. No cut-off for these calls is given here.

What is called IC50 is the point on the concentration scale where inhibition reaches its midpoint. Regarding `C#CCn1cc(C(=O)O)c(=O)c2c3nc(-c4ccc(F)cc4)c(-c4ccc(F)cc4)nc3ccc21`, the IC50 in data set [1] (setting [11]) was above 50 µM.
As for `CCOC(=O)c1cn(CC(F)(F)F)c2ccc3nc(-c4ccc(F)cc4)c(-c4ccc(F)cc4)nc3c2c1=O`, the IC50 in [2] was determined as 275 µM; in [1] (setting [11]), 3.92 µM; in data set [3], 4.6 µM; in data set [6] it was 250 µM. Besides, the “Ratio IC50” value in data set [4] and in data set [8] was 5 each time. The selectivity ratio is 70.2 in [5] and 63.8 in data set [7].
Turning to `O=C(O)c1cn(Cc2ccc(F)cc2)c2ccc3nc(-c4ccccc4)c(-c4ccccc4)nc3c2c1=O`, in [1], the “growth inhibition (GI)” value was “inactive”. The solubility result in data set [9] is listed as “Insoluble”.
Regarding `C#CCn1cc(C(=O)O)c(=O)c2c3nc(-c4ccccc4)c(-c4ccccc4)nc3ccc21`, the “growth inhibition (GI)” value in data set [1] was “inactive”. Moreover, the solubility result in data set [9] is “Insoluble”.
For the compound `C#CCn1cc(C(=O)OCC)c(=O)c2c3nc(-c4ccccc4)c(-c4ccccc4)nc3ccc21`, in data set [1], the IC50 result was “ND(Insoluble)”. Moreover, the “Ratio IC50” value in data set [4] and in [8] was 2 throughout. Also, in data set [9], the solubility entry is “Insoluble”.
Take `CCOC(=O)c1cn(Cc2ccc(F)cc2)c2ccc3nc(-c4ccc(F)cc4)c(-c4ccc(F)cc4)nc3c2c1=O`: the IC50 in [2] was 140 µM; in [1] (setting [11]), 7.59 µM; in [3], 7.11 µM; in [6], 200 µM. The “Ratio IC50” value in data set [4] and in data set [8] was 2 in each case. For the same compound, the selectivity ratio in data set [5] amounted to 18.4; in data set [7], 26.4.
As for `CCOC(=O)c1cn(Cc2ccc(C(F)(F)F)cc2)c2ccc3nc(-c4ccc(F)cc4)c(-c4ccc(F)cc4)nc3c2c1=O`, the IC50 in [1] (setting [11]) was above 50 µM. For the same compound, the “Ratio IC50” value in data set [4] and in [8] was 2 in each case.
`CCOC(=O)c1cn(CC(F)(F)F)c2ccc3nc(-c4ccccc4)c(-c4ccccc4)nc3c2c1=O`: in data set [1] (setting [11]), the IC50 worked out at 13.1 µM. Besides, the “Ratio IC50” value in data set [4] and in [8] was 2 each time.
With `CCn1cc(C(=O)O)c(=O)c2cc(F)c(N3CCNCC3)nc21` [ENOXACIN], the concentration for half-maximal inhibition (IC50) in data set [10] was determined as 20 µM.
For `CCn1cc(C(=O)O)c(=O)c2c3nc(-c4ccccc4)c(-c4ccccc4)nc3ccc21`, the “growth inhibition (GI)” value in data set [1] is “inactive”. Moreover, in data set [9], the solubility entry is recorded as “Insoluble”.
For `Cc1c(F)c(N2CCNC(C)C2)cc2c1c(=O)c(C(=O)O)cn2C1CC1` (stereo not drawn) [GREPAFLOXACIN], the IC50 in data set [10] came out at 20 µM.
Consider `CCOC(=O)c1cn(Cc2ccc(F)cc2)c2ccc3nc(-c4ccccc4)c(-c4ccccc4)nc3c2c1=O`, for which the IC50 in [2] was found to be 200 µM; in data set [1] (setting [11]), 6.94 µM; in data set [3] it was 6.27 µM; in data set [6] it was 150 µM. The “Ratio IC50” value in data set [4] and in data set [8] was 3.3 in each case. Besides, the figures for the selectivity ratio in data set [5] and in data set [7] were 28.8 and 21.6, respectively.
As to `CCOC(=O)c1cn(CC)c2ccc3nc(-c4ccc(F)cc4)c(-c4ccc(F)cc4)nc3c2c1=O`, the IC50 in [1] (setting [11]) came to 32.2 µM. The “Ratio IC50” value in data set [4] and in data set [8] was 2 throughout.
For the compound `O=C(O)c1cn(Cc2ccc(F)cc2)c2ccc3nc(-c4ccc(F)cc4)c(-c4ccc(F)cc4)nc3c2c1=O`, in data set [1] (setting [11]), the half-maximal inhibitory concentration (IC50) is above 50 µM.
As for `CCn1cc(C(=O)O)c(=O)c2c3nc(-c4ccc(F)cc4)c(-c4ccc(F)cc4)nc3ccc21`, the IC50 in [1] (setting [11]) was above 50 µM.
Take `C#CCn1cc(C(=O)OCC)c(=O)c2c3nc(-c4ccc(F)cc4)c(-c4ccc(F)cc4)nc3ccc21`: the 50% inhibitory concentration (IC50) in [1] (setting [11]) was found to be 18.7 µM. The “Ratio IC50” value in data set [4] and in [8] was 2 throughout.
With `NC1CCN(c2c(F)cc3c(=O)c(C(=O)O)cn(C4CC4)c3c2Cl)C1` (stereo not drawn) [CLINAFLOXACIN], the IC50 in data set [10] is 20 µM.
`O=C(O)c1cn(C2CC2)c2cc(N3CCNCC3)c(F)cc2c1=O` [CIPROFLOXACIN]: the IC50 in data set [2] was determined as 60.5 µM; in data set [1] (setting [11]), 23.1 µM; in data set [3], 33.9 µM; in data set [10], 20 µM. Also, in [5], the selectivity ratio came to 2.61.
As to `O=C(O)c1cn(CC(F)(F)F)c2ccc3nc(-c4ccc(F)cc4)c(-c4ccc(F)cc4)nc3c2c1=O`, the IC50 in [1] (setting [11]) is above 50 µM.
For the compound `CCCCn1cc(C(=O)OCC)c(=O)c2c3nc(-c4ccccc4)c(-c4ccccc4)nc3ccc21`, the IC50 in data set [1] (setting [11]) turned out to be 9.17 µM. The “Ratio IC50” value in data set [4] and in data set [8] was 2 in each case.
Turning to `COc1cccc2c1C(=O)c1c(O)c3c(c(O)c1C2=O)C[C@@](O)(C(=O)CO)C[C@@H]3O[C@H]1C[C@H](N)[C@H](O)[C@H](C)O1` [DOXORUBICIN], the IC50 in data set [2] was 0.05 µM; in [6] it was 0.2 µM.
On to `CCOC(=O)C(=CNc1ccc2nc(-c3ccccc3)c(-c3ccccc3)nc2c1)C(=O)OCC`, for which the IC50 in data set [1] (setting [11]) turned out to be 16 µM; in data set [3], 15.5 µM.
Consider `CCCCn1cc(C(=O)O)c(=O)c2c3nc(-c4ccccc4)c(-c4ccccc4)nc3ccc21`, for which, in [1], the “growth inhibition (GI)” value is “inactive”. Also, the solubility result in data set [9] is listed as “Insoluble”.
`CCOC(=O)c1cnc2ccc3nc(-c4ccc(F)cc4)c(-c4ccc(F)cc4)nc3c2c1O`: the IC50 in data set [1] (setting [11]) was determined as 15.7 µM; in data set [3], 26.9 µM.
For `CCOC(=O)C(=CNc1ccc2nc(-c3ccc(F)cc3)c(-c3ccc(F)cc3)nc2c1)C(=O)OCC`, the IC50 in data set [1] (setting [11]) was 21.3 µM.
On to `CCOC(=O)c1cn(CC)c2ccc3nc(-c4ccccc4)c(-c4ccccc4)nc3c2c1=O`, for which the IC50 in data set [1] (setting [11]) turned out to be 15.4 µM; in data set [3], 11.3 µM. Further, the “Ratio IC50” value in [4] and in [8] was 2 in each case.
In the case of `CCOC(=O)c1cnc2ccc3nc(-c4ccccc4)c(-c4ccccc4)nc3c2c1O`, the half-maximal inhibitory concentration (IC50) in data set [1] (setting [11]) came to 29.8 µM.
Same read-out and setting: in the case of `O=C(O)c1cn(Cc2ccc(C(F)(F)F)cc2)c2ccc3nc(-c4ccc(F)cc4)c(-c4ccc(F)cc4)nc3c2c1=O` it was above 50 µM.
On the same count and under the same terms, in the case of `CCCCn1cc(C(=O)O)c(=O)c2c3nc(-c4ccc(F)cc4)c(-c4ccc(F)cc4)nc3ccc21` it was 40.4 µM.
As for `O=C(O)c1cn(CC(F)(F)F)c2ccc3nc(-c4ccccc4)c(-c4ccccc4)nc3c2c1=O`, the “growth inhibition (GI)” value in data set [1] is “inactive”. In addition, the solubility entry in [9] was “Insoluble”.
As for `CCCCn1cc(C(=O)OCC)c(=O)c2c3nc(-c4ccc(F)cc4)c(-c4ccc(F)cc4)nc3ccc21`, in [1] (setting [11]), the IC50 is above 50 µM. The “Ratio IC50” value in data set [4] and in [8] was 2 each time.
With `CCOC(=O)c1cn(Cc2ccc(C(F)(F)F)cc2)c2ccc3nc(-c4ccccc4)c(-c4ccccc4)nc3c2c1=O`, in data set [1], the IC50 result is recorded as “ND(Insoluble)”. Moreover, the “Ratio IC50” value in data set [4] and in [8] was 2 each time. Besides, in data set [9], the solubility result is given as “Insoluble”.
For `O=C(O)c1cn(Cc2ccc(C(F)(F)F)cc2)c2ccc3nc(-c4ccccc4)c(-c4ccccc4)nc3c2c1=O`, the “growth inhibition (GI)” value in data set [1] is “inactive”. Further, the solubility result in [9] is “Insoluble”.

For the origin of these results see ChEMBL document CHEMBL3232776, “Emergence of pyrido quinoxalines as new family of antimalarial agents” (Eur J Med Chem, 2014).
